The supplement of paper PMC10733146

What was measured:
Assay in all cases: viability relative to DMSO control (fraction); higher = less drug effect (more viable cells)
[1] = tested on: primary MCL patient cells (S053); details: 48 h
Outline: (§1)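 In 384-well plates with compounds pre-plated at five concentrations (one well per concentration), primary mononuclear tumour cells were plated at 4 × 10^4 cells per well. The cells came from blood or bone marrow by Ficoll isolation or from processed lymph node, and were used fresh or cryopreserved. Culture ran for 48 h at 37 °C and 5% CO2 in RPMI-1640 containing penicillin/streptomycin, L-glutamine and human serum. Viability was read as CellTiter-Glo luminescence, normalised to the median of 16 inner DMSO wells.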

[2] = tested on: primary AML patient cells (S089); details: 48 h
Outline: as §1

[3] = tested on: primary AML patient cells (S021); details: 48 h
Outline: as §1

[4] = tested on: primary AML patient cells (S019); details: 1 µM; 48 h
Outline: as §1

[5] = tested on: primary AML patient cells (S009); details: 0.0016 µM; 48 h
Outline: as §1

[6] = tested on: primary AML patient cells (S072); details: 48 h
Outline: as §1

[7] = tested on: primary DLBCL patient cells (S049); details: 48 h
Outline: as §1

[8] = tested on: primary AML patient cells (S056); details: 0.008 µM; 48 h
Outline: as §1

[9] = tested on: primary AML patient cells (S037); details: 48 h
Outline: as §1

[10] = tested on: primary B-PLL patient cells (S016); details: 48 h
Outline: as §1

[11] = tested on: primary AML patient cells (S079); details: 48 h
Outline: as §1

[12] = tested on: primary AML patient cells (S002); details: 0.04 µM; 48 h
Outline: as §1

[13] = tested on: primary AML patient cells (S006); details: 0.04 µM; 48 h
Outline: as §1

[14] = tested on: primary AML patient cells (S017); details: 0.04 µM; 48 h
Outline: as §1

[15] = tested on: primary AML patient cells (S081); details: 1 µM; 48 h
Outline: as §1

[16] = tested on: primary AML patient cells (S071); details: 1 µM; 48 h
Outline: as §1

[17] = tested on: primary AML patient cells (S012); details: 48 h
Outline: as §1

[18] = tested on: primary AML patient cells (S055); details: 0.008 µM; 48 h
Outline: as §1

[19] = tested on: primary DLBCL patient cells (S082); details: 48 h
Outline: as §1

[20] = tested on: primary T-NHL patient cells (S058); details: 0.0016 µM; 48 h
Outline: as §1

[21] = tested on: primary FL patient cells (S022); details: 48 h
Outline: as §1

[22] = tested on: primary MCL patient cells (S063); details: 48 h
Outline: as §1

[23] = tested on: primary AML patient cells (S007); details: 1 µM; 48 h
Outline: as §1

[24] = tested on: primary BL patient cells (S005); details: 48 h
Outline: as §1

[25] = tested on: primary AML patient cells (S011); details: 0.2 µM; 48 h
Outline: as §1

[26] = tested on: primary MCL patient cells (S041); details: 48 h
Outline: as §1

[27] = tested on: primary MCL patient cells (S068); details: 48 h
Outline: as §1

[28] = tested on: primary DLBCL patient cells (S076); details: 0.2 µM; 48 h
Outline: as §1

[29] = tested on: primary ALL patient cells (S048); details: 0.008 µM; 48 h
Outline: as §1

[30] = tested on: primary AML patient cells (S044); details: 1 µM; 48 h
Outline: as §1

Compound: C=CC(=O)N1CCC[C@@H](n2nc(-c3ccc(Oc4ccccc4)cc3)c3c(N)ncnc32)C1 [Ibrutinib]
- viability ([1]; 0.0016 µM): 0.591
- viability ([1]; 0.008 µM): 0.57
- viability ([1]; 0.04 µM): 0.595
- viability ([1]; 0.2 µM): 0.588
- viability ([1]; 1 µM): 0.601
- viability ([2]; 0.008 µM): 0.988
- viability ([2]; 0.04 µM): 1
- viability ([2]; 0.2 µM): 0.615
- viability ([2]; 1 µM): 0.6
- viability ([3]; 0.04 µM): 1
- viability ([3]; 1 µM): 0.913
- viability [4]: 1
- viability [5]: 0.965
- viability ([6]; 0.0016 µM): 1.2
- viability ([6]; 0.04 µM): 0.913
- viability ([7]; 0.0016 µM): 0.848
- viability ([7]; 0.04 µM): 0.729
- viability ([7]; 0.2 µM): 0.687
- viability ([7]; 1 µM): 0.686
- viability [8]: 1.1
- viability ([9]; 0.0016 µM): 1.4
- viability ([9]; 0.04 µM): 1.5
- viability ([9]; 1 µM): 1.75
- viability ([10]; 0.0016 µM): 0.576
- viability ([10]; 0.008 µM): 0.507
- viability ([10]; 0.04 µM): 0.517
- viability ([10]; 0.2 µM): 0.508
- viability ([10]; 1 µM): 0.547
- viability ([11]; 0.04 µM): 0.879
- viability ([11]; 0.2 µM): 0.862
- viability ([11]; 1 µM): 1.25
- viability [12]: 1.18
- viability [13]: 0.988
- viability [14]: 1.1
- viability [15]: 1.14
- viability [16]: 0.673
- viability ([17]; 0.0016 µM): 1.1
- viability ([17]; 0.008 µM): 1.09
- viability [18]: 0.949
- viability ([19]; 0.0016 µM): 0.711
- viability ([19]; 0.008 µM): 0.583
- viability ([19]; 0.04 µM): 0.465
- viability ([19]; 0.2 µM): 0.458
- viability ([19]; 1 µM): 0.477
- viability [20]: 1.12
- viability ([21]; 0.2 µM): 0.978
- viability ([21]; 1 µM): 0.978
- viability ([22]; 0.0016 µM): 0.475
- viability ([22]; 0.008 µM): 0.292
- viability ([22]; 0.04 µM): 0.253
- viability ([22]; 0.2 µM): 0.255
- viability ([22]; 1 µM): 0.262
- viability [23]: 0.338
- viability ([24]; 0.0016 µM): 1.1
- viability ([24]; 0.008 µM): 0.982
- viability ([24]; 0.2 µM): 0.978
- viability [25]: 0.972
- viability ([26]; 0.0016 µM): 0.874
- viability ([26]; 0.008 µM): 0.802
- viability ([27]; 0.0016 µM): 0.77
- viability ([27]; 0.008 µM): 0.697
- viability ([27]; 0.2 µM): 0.687
- viability ([27]; 1 µM): 0.783
- viability [28]: 0.89
- viability [29]: 1.12
- viability [30]: 0.777
